Source: ChEMBL document CHEMBL1158422, “A library of novel allosteric inhibitors against fructose 1,6-bisphosphatase” (Bioorg Med Chem, 2009)
pIC50: −log10 of the molar value. Several values for one entry are separate records, joined by “and”; a condition that tells them apart may be missing. Equal values may be shown once. Activity calls are given as the source filed them. The rule behind the calls is not given here.

Each compound was assayed against T1, Fructose-1,6-bisphosphatase 1 (Sus scrofa, UniProt P00636) (assay: Inhibition of pig FBPase expressed in Escherichia coli EK1601 by spectrophotometry). Conditions: not given.
T1 sequence (P00636 whole entry): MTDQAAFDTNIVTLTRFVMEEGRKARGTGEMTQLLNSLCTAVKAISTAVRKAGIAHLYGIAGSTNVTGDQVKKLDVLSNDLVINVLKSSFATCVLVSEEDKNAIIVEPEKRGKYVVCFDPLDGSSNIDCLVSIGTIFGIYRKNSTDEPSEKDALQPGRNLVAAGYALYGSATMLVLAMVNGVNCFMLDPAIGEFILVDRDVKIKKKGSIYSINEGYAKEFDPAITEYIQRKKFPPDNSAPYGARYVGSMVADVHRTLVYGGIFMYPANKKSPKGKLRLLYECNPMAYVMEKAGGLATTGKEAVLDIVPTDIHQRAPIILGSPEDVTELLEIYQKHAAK

IC50	SMILES
Not Active	O=[N+]([O-])c1ccc(-c2csc(Nc3ccccc3)n2)cc1
Not Active	O=[N+]([O-])c1ccc(Nc2nc(-c3ccccc3)cs2)cc1

Same assay, conditions: read-out: IC50

SMILES	pIC50
O=C(O)c1cccc(Nc2nc(-c3ccccc3)cs2)c1	3.24
Nc1ncnc2c1ncn2[C@@H]1O[C@H](COP(=O)(O)O)[C@@H](O)[C@H]1O [ADENOSINE PHOSPHATE]	5.89
Oc1ccc(-c2csc(Nc3ccccc3)n2)cc1	3.50
CCc1c(C)sc(NC(=S)NCc2ccccn2)c1C(=O)OC	4.70
Oc1ccc(Nc2nc(-c3ccc(O)cc3)cs2)cc1	4.32
NS(=O)(=O)c1ccc(Nc2nc(-c3ccc(O)cc3)cs2)cc1	4.49 and 4.50
NS(=O)(=O)c1cccc(Nc2nc(-c3ccccc3)cs2)c1	3.98
Nc1nc(-c2ccccc2)cs1	2.86
Oc1ccc(-c2csc(Nc3ccccc3)n2)c(O)c1	3.46
Oc1ccc(Nc2nc(-c3ccc(O)cc3O)cs2)cc1	4.96
O=C(O)c1cccc(Nc2nc(-c3ccc(O)cc3)cs2)c1	4.32
O=[N+]([O-])c1cccc(Nc2nc(-c3ccc(O)cc3)cs2)c1	4.32
Oc1cccc(Nc2nc(-c3ccc(O)cc3O)cs2)c1	5.22
O=C(O)c1ccc(S(=O)(=O)c2ccc(C(=O)O)cc2)cc1	3.12
Oc1cccc(Nc2nc(-c3ccccc3)cs2)c1	4.46
Oc1ccc(-c2csc(Nc3ccccc3O)n2)cc1	4.82
Oc1ccc(-c2csc(Nc3ccccc3O)n2)c(O)c1	4.70
Nc1nc(-c2ccc(O)cc2)cs1	5.96
NS(=O)(=O)c1ccc(Nc2nc(-c3ccccc3)cs2)cc1	3.84
Nc1nc(-c2ccc(O)cc2O)cs1	4.03
NS(=O)(=O)c1cccc(Nc2nc(-c3ccc(O)cc3)cs2)c1	4.30
Oc1ccccc1Nc1nc(-c2ccccc2)cs1	3.57
O=[N+]([O-])c1ccc(Nc2nc(-c3ccc(O)cc3)cs2)cc1	3.61
Oc1ccc(-c2csc(Nc3cccc(O)c3)n2)cc1	4.89
NS(=O)(=O)c1ccc(Nc2nc(-c3ccc(O)cc3O)cs2)cc1	4.26
Oc1ccc(Nc2nc(-c3ccccc3)cs2)cc1	3.91
Oc1ccccc1-c1csc(Nc2ccccc2)n1	3.92
c1ccc(Nc2nc(-c3ccccc3)cs2)cc1	2.60
Cc1cc(C)n(CC(O)COc2ccc3ccccc3c2)n1 (stereo not drawn)	2.52

The compounds below were run against T2, Fructose-1,6-bisphosphatase 1 (Sus scrofa) (UniProt P00636) (assay: Inhibition of pig FBPase expressed in Escherichia coli EK1601 at 100 uM by spectrophotometry). Conditions: not given.
T2 sequence (whole entry): T1 sequence (P00636 whole entry)

inhibition	SMILES
87%	O=[N+]([O-])c1ccc(-c2csc(Nc3ccc(O)cc3)n2)cc1

Each compound was assayed against T2, Fructose-1,6-bisphosphatase 1 (Sus scrofa) (assay: Inhibition of pig FBPase expressed in Escherichia coli EK1601 up to 300 uM by spectrophotometry). Conditions: not given.

inhibition	SMILES
inactive	O=[N+]([O-])c1cccc(Nc2nc(-c3ccccc3)cs2)c1
